Test results as given in ChEMBL document CHEMBL4507259 (2021).

Tests used:
[1] = biological target: 5-hydroxytryptamine receptor 1B (Homo sapiens) (UniProt P28222); experiment: 5-HT1B CEREP ligand profiling; details: filed as antagonist; Compound concentration 10.0 uM
[2] = biological target: Ribosomal protein S6 kinase alpha-6 (Homo sapiens) (UniProt Q9UK32); details: Compound concentration 1000.0 nM
[3] = biological target: Serine/threonine-protein kinase 4 (Homo sapiens) (UniProt Q13043); details: Compound concentration 1000.0 nM
[4] = system: Epidermal growth factor receptor (Homo sapiens), P00533 [UNDEFINED MUTATION]; details: Compound concentration 1000.0 nM
[5] = biological target: Homeodomain-interacting protein kinase 2 (Homo sapiens) (UniProt Q9H2X6); details: Compound concentration 1000.0 nM
[6] = biological target: Serine/threonine-protein kinase RIO3 (Homo sapiens) (UniProt O14730); details: Compound concentration 1000.0 nM
[7] = biological target: RAC-beta serine/threonine-protein kinase (Homo sapiens) (UniProt P31751); details: Compound concentration 1000.0 nM
Sequence of RAC-beta serine/threonine-protein kinase (Homo sapiens) (P31751 whole entry): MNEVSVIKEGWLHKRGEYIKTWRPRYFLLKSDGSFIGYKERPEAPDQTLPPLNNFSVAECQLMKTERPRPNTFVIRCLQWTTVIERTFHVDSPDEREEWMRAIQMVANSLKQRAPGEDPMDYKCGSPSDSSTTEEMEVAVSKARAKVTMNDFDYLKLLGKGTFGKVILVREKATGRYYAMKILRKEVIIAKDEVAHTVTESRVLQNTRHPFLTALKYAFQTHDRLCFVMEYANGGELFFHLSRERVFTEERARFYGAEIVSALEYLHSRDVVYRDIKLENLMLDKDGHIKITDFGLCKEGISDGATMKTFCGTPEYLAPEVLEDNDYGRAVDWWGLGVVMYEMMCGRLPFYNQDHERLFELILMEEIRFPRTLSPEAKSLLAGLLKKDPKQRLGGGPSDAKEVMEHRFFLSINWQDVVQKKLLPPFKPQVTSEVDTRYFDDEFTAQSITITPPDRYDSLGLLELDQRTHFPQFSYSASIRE

[8] = system: Mast/stem cell growth factor receptor Kit (Homo sapiens), P10721 [V559D,T670I]; details: Compound concentration 1000.0 nM
[9] = biological target: Epidermal growth factor receptor (Homo sapiens) (UniProt P00533); details: Compound concentration 1000.0 nM
[10] = system: Receptor-type tyrosine-protein kinase FLT3 (Homo sapiens), P36888 [K663Q]; details: Compound concentration 1000.0 nM
[11] = biological target: Insulin receptor-related protein (Homo sapiens) (UniProt P14616); details: Compound concentration 1000.0 nM
Sequence of Insulin receptor-related protein (Homo sapiens) (P14616 27-742 limits assumed): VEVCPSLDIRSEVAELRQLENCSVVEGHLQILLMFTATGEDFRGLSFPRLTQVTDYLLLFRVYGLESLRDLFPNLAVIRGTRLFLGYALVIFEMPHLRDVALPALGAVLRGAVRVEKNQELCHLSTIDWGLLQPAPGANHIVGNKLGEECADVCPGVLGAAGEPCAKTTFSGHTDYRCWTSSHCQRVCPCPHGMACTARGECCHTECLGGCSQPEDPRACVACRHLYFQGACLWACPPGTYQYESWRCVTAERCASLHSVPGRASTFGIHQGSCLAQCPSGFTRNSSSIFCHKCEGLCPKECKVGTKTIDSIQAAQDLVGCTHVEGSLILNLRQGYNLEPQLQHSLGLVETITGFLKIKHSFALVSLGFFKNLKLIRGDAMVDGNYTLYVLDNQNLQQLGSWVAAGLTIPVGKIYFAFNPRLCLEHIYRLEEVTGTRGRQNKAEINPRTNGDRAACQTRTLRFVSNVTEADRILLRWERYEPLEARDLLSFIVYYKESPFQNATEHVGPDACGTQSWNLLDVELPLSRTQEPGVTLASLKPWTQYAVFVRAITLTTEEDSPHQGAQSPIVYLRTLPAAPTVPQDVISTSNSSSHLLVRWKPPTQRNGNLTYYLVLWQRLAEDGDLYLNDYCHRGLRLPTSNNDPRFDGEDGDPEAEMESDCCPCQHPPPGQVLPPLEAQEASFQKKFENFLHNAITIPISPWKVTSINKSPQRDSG
Sequence of Insulin receptor-related protein (Homo sapiens) (P14616 747-1297 limits assumed): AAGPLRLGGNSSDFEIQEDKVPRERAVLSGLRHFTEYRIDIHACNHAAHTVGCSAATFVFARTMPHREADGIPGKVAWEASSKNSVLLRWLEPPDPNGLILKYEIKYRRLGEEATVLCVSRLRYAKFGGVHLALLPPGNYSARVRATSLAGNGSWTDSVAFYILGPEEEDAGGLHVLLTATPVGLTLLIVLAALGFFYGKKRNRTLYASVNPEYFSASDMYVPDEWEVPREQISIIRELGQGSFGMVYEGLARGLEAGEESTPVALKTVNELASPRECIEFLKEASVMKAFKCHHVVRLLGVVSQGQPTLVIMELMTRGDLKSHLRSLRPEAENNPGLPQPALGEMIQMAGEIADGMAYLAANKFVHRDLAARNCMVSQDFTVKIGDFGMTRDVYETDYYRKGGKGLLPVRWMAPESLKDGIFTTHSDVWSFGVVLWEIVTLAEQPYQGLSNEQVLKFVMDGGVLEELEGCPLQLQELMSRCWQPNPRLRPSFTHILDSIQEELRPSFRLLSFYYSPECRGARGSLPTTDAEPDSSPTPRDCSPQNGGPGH

[12] = biological target: Sodium/potassium-transporting ATPase (Homo sapiens) (UniProt P05023+P14415+P05026+P50993+P54709+P13637+Q13733+P54710); experiment: ATPase (Na+/K+) CEREP ligand profiling; format: protein-complex assay; details: Compound concentration 10.0 uM
[13] = biological target: Glycogen synthase kinase-3 beta (Homo sapiens) (UniProt P49841); details: Compound concentration 1000.0 nM
[14] = biological target: Bone morphogenetic protein receptor type-1A (Homo sapiens) (UniProt P36894); details: Compound concentration 1000.0 nM
[15] = biological target: Non-receptor tyrosine-protein kinase TNK1 (Homo sapiens) (UniProt Q13470); details: Compound concentration 1000.0 nM
Sequence of Non-receptor tyrosine-protein kinase TNK1 (Homo sapiens) (Q13470 whole entry): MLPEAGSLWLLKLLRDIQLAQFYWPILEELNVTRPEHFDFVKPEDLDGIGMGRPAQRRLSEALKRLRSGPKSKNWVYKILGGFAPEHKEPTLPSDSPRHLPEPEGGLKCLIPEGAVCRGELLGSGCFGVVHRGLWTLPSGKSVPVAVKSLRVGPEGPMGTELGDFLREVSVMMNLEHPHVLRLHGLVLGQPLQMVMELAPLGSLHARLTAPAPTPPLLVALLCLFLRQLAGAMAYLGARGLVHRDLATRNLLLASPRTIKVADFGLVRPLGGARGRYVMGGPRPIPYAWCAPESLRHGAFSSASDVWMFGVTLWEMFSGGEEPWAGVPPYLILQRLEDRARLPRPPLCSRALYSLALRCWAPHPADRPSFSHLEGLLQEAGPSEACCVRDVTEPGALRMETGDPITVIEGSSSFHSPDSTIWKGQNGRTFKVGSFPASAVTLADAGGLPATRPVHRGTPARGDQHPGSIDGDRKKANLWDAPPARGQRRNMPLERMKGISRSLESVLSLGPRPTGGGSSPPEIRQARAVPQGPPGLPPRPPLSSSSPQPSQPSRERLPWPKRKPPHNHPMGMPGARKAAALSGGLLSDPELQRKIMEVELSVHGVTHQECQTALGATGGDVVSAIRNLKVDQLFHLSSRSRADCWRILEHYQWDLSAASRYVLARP

[16] = biological target: Serine/threonine-protein kinase PLK2 (Homo sapiens) (UniProt Q9NYY3); details: Compound concentration 1000.0 nM
[17] = biological target: Inhibitor of nuclear factor kappa-B kinase subunit beta (Homo sapiens) (UniProt O14920); details: Compound concentration 1000.0 nM
[18] = biological target: Cyclin-dependent kinase 7 (Homo sapiens) (UniProt P50613); details: Compound concentration 1000.0 nM
Sequence of Cyclin-dependent kinase 7 (Homo sapiens) (P50613 whole entry): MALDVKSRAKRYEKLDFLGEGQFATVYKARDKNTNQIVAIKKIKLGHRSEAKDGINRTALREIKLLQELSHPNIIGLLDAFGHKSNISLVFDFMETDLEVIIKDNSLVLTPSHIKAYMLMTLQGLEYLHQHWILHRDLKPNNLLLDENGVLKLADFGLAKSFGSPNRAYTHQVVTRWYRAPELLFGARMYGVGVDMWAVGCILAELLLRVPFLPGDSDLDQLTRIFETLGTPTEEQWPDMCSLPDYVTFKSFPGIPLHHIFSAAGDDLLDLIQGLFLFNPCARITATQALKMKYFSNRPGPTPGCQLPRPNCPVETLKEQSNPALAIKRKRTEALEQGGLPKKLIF

[19] = biological target: MAP kinase-activated protein kinase 2 (Homo sapiens) (UniProt P49137); details: Compound concentration 1000.0 nM
Sequence of MAP kinase-activated protein kinase 2 (Homo sapiens) (P49137 whole entry, looked up): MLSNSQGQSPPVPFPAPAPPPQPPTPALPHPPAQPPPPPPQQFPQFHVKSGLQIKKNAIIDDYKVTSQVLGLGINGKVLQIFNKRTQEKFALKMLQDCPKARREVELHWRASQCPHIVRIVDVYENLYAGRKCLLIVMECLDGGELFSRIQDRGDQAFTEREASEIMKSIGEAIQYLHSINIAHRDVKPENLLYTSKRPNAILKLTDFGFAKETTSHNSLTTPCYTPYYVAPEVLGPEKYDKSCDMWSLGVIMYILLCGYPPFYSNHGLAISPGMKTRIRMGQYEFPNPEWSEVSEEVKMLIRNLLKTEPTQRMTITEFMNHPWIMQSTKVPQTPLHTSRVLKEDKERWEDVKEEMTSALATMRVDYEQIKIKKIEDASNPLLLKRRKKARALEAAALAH

[20] = biological target: Urotensin-2 receptor (Homo sapiens) (UniProt Q9UKP6); experiment: UT (h) CEREP ligand profiling; details: filed as agonist, Compound concentration 10.0 uM
Sequence of Urotensin-2 receptor (Homo sapiens) (Q9UKP6 whole entry): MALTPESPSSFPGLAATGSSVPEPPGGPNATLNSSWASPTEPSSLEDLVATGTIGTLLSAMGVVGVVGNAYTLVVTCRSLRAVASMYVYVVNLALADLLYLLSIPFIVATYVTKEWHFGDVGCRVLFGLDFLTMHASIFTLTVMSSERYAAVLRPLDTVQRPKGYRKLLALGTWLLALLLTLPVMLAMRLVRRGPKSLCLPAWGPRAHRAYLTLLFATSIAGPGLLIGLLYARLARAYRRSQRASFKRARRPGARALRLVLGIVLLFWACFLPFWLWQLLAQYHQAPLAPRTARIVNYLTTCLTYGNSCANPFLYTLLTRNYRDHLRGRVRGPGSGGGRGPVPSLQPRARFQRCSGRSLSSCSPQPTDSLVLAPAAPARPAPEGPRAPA

[21] = biological target: Serine/threonine-protein kinase NIM1 (Homo sapiens) (UniProt Q8IY84); details: Compound concentration 1000.0 nM
Sequence of Serine/threonine-protein kinase NIM1 (Homo sapiens) (Q8IY84 whole entry): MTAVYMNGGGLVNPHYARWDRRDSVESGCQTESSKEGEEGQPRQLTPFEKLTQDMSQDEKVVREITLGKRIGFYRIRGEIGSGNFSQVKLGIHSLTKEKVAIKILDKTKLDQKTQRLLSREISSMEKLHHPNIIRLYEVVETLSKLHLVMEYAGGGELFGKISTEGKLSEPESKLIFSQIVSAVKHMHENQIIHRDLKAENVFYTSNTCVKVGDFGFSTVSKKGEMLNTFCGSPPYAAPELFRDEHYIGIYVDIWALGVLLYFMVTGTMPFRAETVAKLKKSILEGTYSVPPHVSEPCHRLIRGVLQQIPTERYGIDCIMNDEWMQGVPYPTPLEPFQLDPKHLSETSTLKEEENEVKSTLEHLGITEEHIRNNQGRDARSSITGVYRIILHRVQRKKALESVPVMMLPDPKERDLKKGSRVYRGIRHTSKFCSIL

[22] = biological target: Calcium-activated potassium channel (Homo sapiens) (UniProt Q92952+Q9UGI6+Q12791+O15554+Q9H2S1+A8MYU2); experiment: SKCa channel CEREP ligand profiling; format: protein assay; details: filed as antagonist; Compound concentration 10.0 uM
[23] = biological target: D(1A) dopamine receptor (Homo sapiens) (UniProt P21728); experiment: D1 (h) CEREP ligand profiling; details: filed as antagonist, Compound concentration 10.0 uM
[24] = biological target: Ribosomal protein S6 kinase alpha-4 (Homo sapiens) (UniProt O75676); details: Compound concentration 1000.0 nM
[25] = biological target: Megakaryocyte-associated tyrosine-protein kinase (Homo sapiens) (UniProt P42679); details: Compound concentration 1000.0 nM
[26] = biological target: Dual specificity testis-specific protein kinase 1 (Homo sapiens) (UniProt Q15569); details: Compound concentration 1000.0 nM
[27] = biological target: Ribosomal protein S6 kinase alpha-2 (Homo sapiens) (UniProt Q15349); details: Compound concentration 1000.0 nM
[28] = biological target: Ephrin type-A receptor 6 (Homo sapiens) (UniProt Q9UF33); details: Compound concentration 1000.0 nM
[29] = system: Tyrosine-protein kinase ABL1 (Homo sapiens), P00519 [Y253F]; details: Compound concentration 1000.0 nM
[30] = biological target: Protein kinase C theta type (Homo sapiens) (UniProt Q04759); details: Compound concentration 1000.0 nM
[31] = biological target: Serine/threonine-protein kinase RIO2 (Homo sapiens) (UniProt Q9BVS4); details: Compound concentration 1000.0 nM
[32] = biological target: Prostaglandin E2 receptor EP2 subtype (Homo sapiens) (UniProt P43116); experiment: EP2 (h) CEREP ligand profiling; details: filed as agonist, Compound concentration 10.0 uM
[33] = biological target: Serine/threonine-protein kinase TBK1 (Homo sapiens) (UniProt Q9UHD2); details: Compound concentration 1000.0 nM
[34] = biological target: T1, Alpha-1A adrenergic receptor (Homo sapiens) (UniProt P35348); experiment: alpha 1A (h) CEREP ligand profiling; details: filed as antagonist, Compound concentration 10.0 uM
T1 sequence (whole entry): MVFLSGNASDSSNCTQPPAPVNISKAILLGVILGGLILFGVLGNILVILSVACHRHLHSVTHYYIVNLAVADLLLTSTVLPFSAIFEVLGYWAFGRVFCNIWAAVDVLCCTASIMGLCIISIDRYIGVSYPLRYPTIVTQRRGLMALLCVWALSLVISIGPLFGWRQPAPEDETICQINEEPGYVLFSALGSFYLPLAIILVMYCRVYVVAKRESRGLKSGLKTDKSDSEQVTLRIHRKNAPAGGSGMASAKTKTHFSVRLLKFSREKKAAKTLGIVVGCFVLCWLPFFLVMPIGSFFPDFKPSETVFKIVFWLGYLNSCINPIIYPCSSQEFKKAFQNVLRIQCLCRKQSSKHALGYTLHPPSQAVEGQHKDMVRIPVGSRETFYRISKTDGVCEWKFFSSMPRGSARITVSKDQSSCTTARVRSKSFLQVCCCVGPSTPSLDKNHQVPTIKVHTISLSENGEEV

[35] = biological target: Serine/threonine-protein kinase TAO2 (Homo sapiens) (UniProt Q9UL54); details: Compound concentration 1000.0 nM
[36] = biological target: Casein kinase I isoform alpha-like (Homo sapiens) (UniProt Q8N752); details: Compound concentration 1000.0 nM
[37] = system: Fibroblast growth factor receptor 3 (Homo sapiens), P22607 [G697C]; details: Compound concentration 1000.0 nM
Sequence of Fibroblast growth factor receptor 3 (Homo sapiens), P22607 [G697C] (P22607 whole entry G697C): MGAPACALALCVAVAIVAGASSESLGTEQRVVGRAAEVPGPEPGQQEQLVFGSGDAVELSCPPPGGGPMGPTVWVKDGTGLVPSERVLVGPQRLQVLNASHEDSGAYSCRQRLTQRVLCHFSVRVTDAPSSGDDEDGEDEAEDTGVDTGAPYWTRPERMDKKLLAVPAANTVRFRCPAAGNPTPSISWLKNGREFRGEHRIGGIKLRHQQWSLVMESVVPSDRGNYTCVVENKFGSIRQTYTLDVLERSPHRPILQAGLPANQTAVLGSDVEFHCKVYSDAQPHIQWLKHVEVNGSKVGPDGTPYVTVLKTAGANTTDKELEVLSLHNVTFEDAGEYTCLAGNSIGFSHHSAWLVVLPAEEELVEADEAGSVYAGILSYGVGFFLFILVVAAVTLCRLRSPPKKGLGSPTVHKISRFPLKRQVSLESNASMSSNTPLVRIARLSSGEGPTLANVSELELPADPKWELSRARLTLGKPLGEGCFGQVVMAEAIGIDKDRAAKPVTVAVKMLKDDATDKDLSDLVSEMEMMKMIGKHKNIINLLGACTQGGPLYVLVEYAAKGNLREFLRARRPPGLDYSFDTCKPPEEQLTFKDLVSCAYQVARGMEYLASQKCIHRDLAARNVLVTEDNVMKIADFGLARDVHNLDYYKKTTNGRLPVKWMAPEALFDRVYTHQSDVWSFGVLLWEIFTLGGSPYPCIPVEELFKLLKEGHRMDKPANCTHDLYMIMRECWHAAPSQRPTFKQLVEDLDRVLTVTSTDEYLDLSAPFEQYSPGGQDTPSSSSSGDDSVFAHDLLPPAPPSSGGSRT

CNC(=O)Nc1ccc2c(c1)[C@@]1(CC2)OC(=O)N(CC(=O)N(Cc2ccc(F)cc2)[C@@H](C)C(F)(F)F)C1=O [A-486]
inactive: inhibition [1] -9% | residual activity [2] 100% | residual activity [3] 100% | residual activity [4] 96% | residual activity [5] 78% | residual activity [6] 100% | residual activity [7] 99% | residual activity [8] 100% | residual activity [9] 100% | residual activity [10] 84% | residual activity [11] 100% | inhibition [12] -1% | residual activity [13] 95% | residual activity [14] 100% | residual activity [15] 100% | residual activity [16] 92% | residual activity [17] 92% | residual activity [18] 76% | residual activity [19] 100% | inhibition [20] 21% | residual activity [21] 76% | inhibition [22] -7% | inhibition [23] -5% | residual activity [24] 100% | residual activity [25] 100% | residual activity [26] 100% | residual activity [27] 87% | residual activity [28] 91% | residual activity [29] 100% | residual activity [30] 89% | residual activity [31] 83% | inhibition [32] 10% | residual activity [33] 84% | inhibition [34] 16% | residual activity [35] 95% | residual activity [36] 100% | residual activity [37] 96%

CNC(=O)Nc1ccc2c(c1)CC[C@@]21OC(=O)N(CC(=O)N(Cc2ccc(F)cc2)[C@@H](C)C(F)(F)F)C1=O [A-485]
inactive: inhibition [1] -6% | residual activity [2] 84% | residual activity [3] 100% | residual activity [4] 95% | residual activity [5] 95% | residual activity [6] 89% | residual activity [7] 80% | residual activity [8] 93% | residual activity [9] 100% | residual activity [10] 100% | residual activity [11] 96% | inhibition [12] -1% | residual activity [13] 82% | residual activity [14] 91% | residual activity [15] 86% | residual activity [16] 91% | residual activity [17] 83% | residual activity [18] 78% | residual activity [19] 87% | inhibition [20] 6% | residual activity [21] 71% | inhibition [22] 2% | inhibition [23] -4% | residual activity [24] 100% | residual activity [25] 71% | residual activity [26] 73% | residual activity [27] 76% | residual activity [28] 79% | residual activity [29] 81% | residual activity [30] 71% | residual activity [31] 67% | inhibition [32] 27% | residual activity [33] 83% | inhibition [34] 29% | residual activity [35] 91% | residual activity [36] 88% | residual activity [37] 79%
